# Measured values: patent US9302014B2, “Cell-penetrating peptides having a central hydrophobic domain” (Medical Research Council, priority 2011, dated 2016)
# Non-standard residues stand in square brackets, D forms with d. No end group written: not given here. Ahx = NCCCCCC(=O)O; βAla = NCCC(=O)O
# How the values were obtained:
# [1] = system: dystrophin exon 23; assay: Exon skipping in differentiated mouse H2K mdx myotubes (nested RT-PCR, densitometry); assay type: cell-based; details: Example 5, conjugate 0.125 to 2.0 μM, no transfection agent
# Experimental: The exon skipping potential of Pip6-PMO conjugates was evaluated in differentiated mouse H2K mdx myotubes in the absence of any transfection agent (FIG. 1) at concentrations ranging from 0.125 μM to 1 μM. […] In the case of Pip6 sequences, the flanking arginine-rich sequences are identical (with the exception of Pip6e, which is identical except for one arginine immediately preceding the core which is displaced into the second position of the core). […] Note that we have previously shown that major changes in in vitro exon skipping activities are correlated instead with the total numbers of arginine residues [Saleh, A. F., et al., Synthesis and splice-redirecting activity of branched, arginine-rich peptide dendrimer conjugates of peptide nucleic acid oligonucleotides. Bioconjug Chem, 2010. 21(10): p. 1902-11.].
# H2K mdx myotubes are derived from H2K mdx myoblasts obtained from the EDL muscle of a male H2K mdx f2 mouse. The cells are dystrophin deficient and conditionally immortal due to thermolabile simian virus 40 large tumor antigen (tsA58) expression. The myoblasts proliferate at 33° C. (10% CO2) in rich culture and differentiate into myotubes at 37° C. in media with horse serum.
# H2K mdx myotubes were prepared and incubated with peptide-PNA and peptide-PMO conjugates in the absence of any transfection agent by the methods described previously (Wang, Q, Yin, H, et aL (2010) In vitro evaluation of novel antisense oligonucleotides is predictive of in vivo exon skipping activity for Duchenne muscular dystrophy) but with minor variations.
# Myotubes were obtained from confluent H2K mdx cells seeded in gelatine coated 24-well plates following 2 days of serum deprivation (DMEM with 5% horse serum). The conjugates were incubated with myotubes for 4 h in 0.5 mL OptiMEM and then replaced by 1 mL of DMEM/5% horse serum media for further incubation. After 20 h myotubes were washed twice with PBS and total RNA was extracted with 0.5 mL of TRI Reagent (Sigma, UK). RNA preparations were treated with RNAse free DNAse (2U) and Proteinase K ([…]) prior to RT-PCR analysis. RT-PCR was carried out in 25 μL with 1 μg RNA template using SuperScript III One-Step RTPCR System with Platinum Taq DNA polymerase (Invitrogen) primed by forward primer 5′CAG AAT TCT GCC AAT TGC TGAG3′ [SEQ ID NO:312] and reverse primer 5′TTC TTC AGC TTG TGT CAT CC3′ [SEQ ID NO:313]. The initial cDNA synthesis was performed at 55° C. for 30 min followed by 30 cycles of 95° C. for 30 sec, 55° C. for 1 min and 68° C. for 80 sec. RT PCR product ([…]) was then used as the template for secondary PCR performed in 25 μL with 0.5 U Super TAQ polymerase (HT Biotechnologies) and primed by forward primer 5′CCCAGTCTACCACCCTATCAG AGC3′ [SEQ ID NO:314] and reverse primer 5′CCT GCC TTT AAG GCT TCC TT3′ [SEQ ID NO:315]. The cycling conditions were 95° C. for 1 min, 57° C. for 1 min and 72° C. for 80 sec for 25 cycles. Products were examined by 2% agarose gel and after scanning using Gene Tools Analysis Software (SynGene) the relative amount of exon 23 skipping was expressed as a percentage at a given concentration of conjugates averaged over duplicates of three experiments.
# H2K mdx myotubes were prepared and incubated with peptide-PMO conjugates in the absence of any transfection agent at concentrations of 0.125, 0.25, 0.5 and 1.0 μM by the method described previously [Yin, H., et al., Pip5 transduction peptides direct high efficiency oligonucleotide-mediated dystrophin exon skipping in heart and phenotypic correction in mdx mice. Mol Ther, 2011. 19(7): p. 1295-303.]. The products of nested RT-PCR from total isolated RNA were examined by electrophoresis on a 2% agarose gel. Quantification of Δ23 transcript levels was calculated using densitometry. […]
# [2] = system: dystrophin; assay: In vivo exon skipping and dystrophin production in mdx mice (combined RNA and protein read-outs); details: lead PPMO comparison; TA, quadriceps, diaphragm and heart; 8 week old mdx mice, 12.5 mg/kg IV, 2 weeks
# Source text: Given the potency of Pip5e-PMO in heart tissue, the aim of altering the sequence of the hydrophobic core (whilst maintaining the 5-aa length) was to identify peptides that might be more efficient at lower doses. These modifications included inversion of the hydrophobic region (Pip6a), substitution of tyrosine by isoleucine (Pip6b), substitution of glutamine in the Pip6a sequence by displacement of the arginine immediately flanking the core in the first arginine-rich flanking region (Pip6e), and a scrambled hydrophobic core sequence (Pip6f). All Pip6 peptide-PMO conjugates were administered to mdx mice as single 12.5 mg/kg intravenous injections via the tail vein and tissues were harvested 2 weeks later and assessed for activity at both RNA and protein levels. […]
# Immunohistochemical staining (data not shown) was used to visualise the production of dystrophin protein (and its correct re-location at the sarcolemma) and RT-PCR was used to detect exon-skipped products in treated mdx muscle groups. qPCR allows for the quantification of the spliced product and Western blots were used to quantify the amount of dystrophin protein produced in muscles from treated mdx mice as compared with C57BL10 and untreated mdx controls. […]
substance,measurement,setting,value
Pip9d2: Pip9 series peptide (SEQ ID Nos 320-328) conjugated to PMODMD (R[Ahx]RR[βAla]RFQILY[βAla]R[Ahx]R[βAla]; also: conjugated to PMO (PMODMD)),exon skipping activity (Δ23 skipping) in mdx muscle cells,[1],high exon skipping activity
same,levels of exon-skipped dystrophin RNA and protein,[2],negligible dystrophin production
